Source: patent US9718790B2, “Triazine derivative and pharmaceutical composition having an analgesic activity comprising the same” (SHIONOGI & CO., LTD., priority 2010, dated 2017)
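Further: stimulus was 50 nM ATP with fluorescence followed for 3 min, and the response per well was peak post-ATP fluorescence divided by the reading at measurement start.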

The molecules below were run against human P2X3 receptor (Homo sapiens (Human), UniProt P56373) (assay: Evaluation of human P2X3 receptor inhibitory activity (Fluo-3 calcium fluorescence, FDSS 3000, ATP stimulation)). Conditions: C6BU-1 cells stably expressing human P2X3 receptor.
Sequence of human P2X3 receptor (P56373 whole entry): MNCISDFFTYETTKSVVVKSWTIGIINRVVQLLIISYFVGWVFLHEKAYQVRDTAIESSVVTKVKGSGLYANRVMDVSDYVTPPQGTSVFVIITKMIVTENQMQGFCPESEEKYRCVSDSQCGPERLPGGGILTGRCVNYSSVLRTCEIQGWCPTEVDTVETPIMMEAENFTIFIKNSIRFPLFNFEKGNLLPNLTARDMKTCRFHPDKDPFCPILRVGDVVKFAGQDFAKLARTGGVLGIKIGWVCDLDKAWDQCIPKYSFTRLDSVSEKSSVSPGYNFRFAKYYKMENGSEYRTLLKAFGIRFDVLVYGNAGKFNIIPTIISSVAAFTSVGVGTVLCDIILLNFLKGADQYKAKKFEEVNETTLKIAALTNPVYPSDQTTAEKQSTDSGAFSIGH
Type: cell-based
C[C@@H](Oc1ccc(/N=c2\[nH]c(=O)n(CCC(=O)O)c(=O)n2Cc2ccc(Cl)cc2)cc1)C(F)(F)F [Compound I-1908] gave an IC50 of 70 nM.
With CCOC(=O)CCn1c(=O)[nH]/c(=N\c2ccc(OC(C)C)c(F)c2)n(CC2CCCCCCC2)c1=O [Compound I-1911] the IC50 was 253 nM.
CNC(=O)CCn1c(=O)[nH]/c(=N\c2ccc(OCC3CC3)cc2)n(Cc2ccc(Cl)cc2)c1=O [Compound I-1912] gave an IC50 of 29 nM.
In the case of CNC(=O)CCn1c(=O)[nH]/c(=N\c2ccc(OC3CCC3)cc2)n(Cc2ccc(Cl)cc2)c1=O [Compound I-1913], the IC50 is reported as 19 nM.
NC(=O)CCn1c(=O)[nH]/c(=N\c2ccc(OCC3CC3)cc2)n(Cc2ccc(Cl)cc2)c1=O [Compound I-1914] was tested, and the IC50 was 46 nM.
In the case of NC(=O)CCn1c(=O)[nH]/c(=N\c2ccc(OC3CCC3)cc2)n(Cc2ccc(Cl)cc2)c1=O [Compound I-1915], the IC50 is reported as 23 nM.
CC(C)Oc1ccc(/N=c2\[nH]c(=O)n(CCC(=O)O)c(=O)n2CC2CCCCCCC2)cc1F [Compound I-1916] was tested, and the IC50 was 995 nM.
For O=c1[nH]/c(=N\c2ccc(OCC3CC3)cc2)n(Cc2ccc(Cl)cc2)c(=O)n1CCCO [Compound I-1917], the IC50 was 23 nM.
Work on O=c1[nH]/c(=N\c2ccc(OC3CCC3)cc2)n(Cc2ccc(Cl)cc2)c(=O)n1CCCO [Compound I-1918] yielded an IC50 of 12 nM.
Molecule COC(=O)c1cccc(Oc2ccc(/N=c3\[nH]c(=O)[nH]c(=O)n3Cc3ccc(Cl)cc3)cc2)c1 [Compound I-1919] has an IC50 of 214 nM.
O=C(O)c1cccc(Oc2ccc(/N=c3\[nH]c(=O)[nH]c(=O)n3Cc3ccc(Cl)cc3)cc2)c1 [Compound I-1923] was tested, and the IC50 was 84 nM.
Work on CCn1c(=O)[nH]/c(=N\c2ccc(Oc3cccc(C(N)=O)c3)cc2)n(Cc2ccc(Cl)cc2)c1=O [Compound I-1925] yielded an IC50 of 6 nM.
Molecule Cc1cc(Oc2ccc(/N=c3\[nH]c(=O)n(CC(N)=O)c(=O)n3Cc3ccc(Cl)cc3)cc2)ccn1 [Compound I-1926] has an IC50 of 10 nM.
Work on CNC(=O)Cn1c(=O)[nH]/c(=N\c2ccc(Oc3ccnc(C)c3)cc2)n(Cc2ccc(Cl)cc2)c1=O [Compound I-1927] yielded an IC50 of 7 nM.
In the case of Cc1cc(Oc2ccc(/N=c3\[nH]c(=O)n(CC(=O)NCCO)c(=O)n3Cc3ccc(Cl)cc3)cc2)ccn1 [Compound I-1928], the IC50 is reported as 5 nM.
Work on COC(=O)Cn1c(=O)[nH]/c(=N\c2ccc(OCC3CC3)cc2)n(Cc2ccc(Cl)cc2)c1=O [Compound I-1930] yielded an IC50 of 29 nM.
With CCOC(=O)CCn1c(=O)[nH]/c(=N\c2ccc3[nH]c(C)c(C)c3c2)n(Cc2ccc(Cl)cc2)c1=O [Compound I-1931] the IC50 was 9 nM.
Work on O=C(O)Cn1c(=O)[nH]/c(=N\c2ccc(Oc3ccnc(O)c3)cc2)n(Cc2ccc(Cl)cc2)c1=O [Compound I-1932] yielded an IC50 of 95 nM.
For Cc1ccc(Oc2ccc(/N=c3\[nH]c(=O)n(CC(=O)O)c(=O)n3Cc3ccc(Cl)cc3)cc2)cn1 [Compound I-1934], the IC50 was 198 nM.
Cc1[nH]c2ccc(/N=c3\[nH]c(=O)n(CC(CO)CO)c(=O)n3Cc3ccc(Cl)cc3)cc2c1C [Compound I-1935] showed an IC50 of 9 nM.
In the case of CCOC(=O)CCn1c(=O)[nH]/c(=N\c2ccc(Oc3cccc(F)c3)cc2)n(Cc2ccc(Cl)cc2)c1=O [Compound I-1937], the IC50 is reported as 22 nM.
CCOC(=O)c1cc2cc(/N=c3\[nH]c(=O)n(C[C@H](C)C(=O)OC)c(=O)n3Cc3ccc(Cl)cc3)ccc2o1 [Compound I-1938] gave an IC50 of 312 nM.
Molecule COC(=O)Cn1c(=O)[nH]/c(=N\c2ccc(OC3CCC3)cc2)n(Cc2ccc(Cl)cc2)c1=O [Compound I-1939] has an IC50 of 30 nM.
NC(=O)Cn1c(=O)[nH]/c(=N\c2ccc(OCC3CC3)cc2)n(Cc2ccc(Cl)cc2)c1=O [Compound I-1940] was tested, and the IC50 was 55 nM.
Molecule CCn1c(=O)[nH]/c(=N\c2ccc(Oc3cc(C(=O)OC)on3)cc2)n(Cc2ccc(Cl)cc2)c1=O [Compound I-1941] has an IC50 of 5 nM.
CNC(=O)Cn1c(=O)[nH]/c(=N\c2ccc(OCC3CC3)cc2)n(Cc2ccc(Cl)cc2)c1=O [Compound I-1942] was tested, and the IC50 was 49 nM.
Molecule O=C(O)Cn1c(=O)[nH]/c(=N\c2ccc(OC3CCC3)cc2)n(Cc2ccc(Cl)cc2)c1=O [Compound I-1943] has an IC50 of 258 nM.
With Cc1ccc(Oc2ccc(/N=c3\[nH]c(=O)n(CC(N)=O)c(=O)n3Cc3ccc(Cl)cc3)cc2)cn1 [Compound I-1944] the IC50 was 11 nM.
CNC(=O)Cn1c(=O)[nH]/c(=N\c2ccc(Oc3ccc(C)nc3)cc2)n(Cc2ccc(Cl)cc2)c1=O [Compound I-1945] was tested, and the IC50 was 8 nM.
For NC(=O)Cn1c(=O)[nH]/c(=N\c2ccc(OC3CCC3)cc2)n(Cc2ccc(Cl)cc2)c1=O [Compound I-1946], the IC50 was 25 nM.
Work on CCc1cc2cc(/N=c3\[nH]c(=O)n(C[C@H](C)C(=O)OC)c(=O)n3Cc3ccc(Cl)cc3)ccc2s1 [Compound I-1947] yielded an IC50 of 353 nM.
CNC(=O)Cn1c(=O)[nH]/c(=N\c2ccc(OC3CCC3)cc2)n(Cc2ccc(Cl)cc2)c1=O [Compound I-1948] gave an IC50 of 22 nM.
With Cc1[nH]c2ccc(/N=c3\[nH]c(=O)n(CCCO)c(=O)n3Cc3ccc(Cl)cc3)cc2c1C [Compound I-1949] the IC50 was 5 nM.
Cc1[nH]c2ccc(/N=c3\[nH]c(=O)n(CCC(=O)O)c(=O)n3Cc3ccc(Cl)cc3)cc2c1C [Compound I-1950] gave an IC50 of 29 nM.
O=C(O)CCn1c(=O)[nH]/c(=N\c2ccc(Oc3cccc(F)c3)cc2)n(Cc2ccc(Cl)cc2)c1=O [Compound I-1951] was tested, and the IC50 was 25 nM.
Work on C[C@@H](Cn1c(=O)[nH]/c(=N\c2ccc3oc(C(=O)O)cc3c2)n(Cc2ccc(Cl)cc2)c1=O)C(=O)O [Compound I-1952] yielded an IC50 of 781 nM.
With Cc1ccc(Cn2c(=O)n(CCCO)c(=O)[nH]/c2=N\c2ccc(O[C@H](C)C(F)(F)F)cc2)cc1 [Compound I-1953] the IC50 was 16 nM.
For Cc1cc(Oc2ccc(/N=c3\[nH]c(=O)n(CC(CO)CO)c(=O)n3Cc3ccc(Cl)cc3)cc2)ccn1 [Compound I-1954], the IC50 was 5 nM.
Cc1cc(Oc2ccc(/N=c3\[nH]c(=O)[nH]c(=O)n3Cc3ccc(Cl)cc3)cc2)ccn1 [Compound I-1955] gave an IC50 of 97 nM.
For C[C@@H](Oc1ccc(/N=c2\[nH]c(=O)n(CCC(N)=O)c(=O)n2Cc2ccc(Cl)cc2)cc1)C(F)(F)F [Compound I-1956], the IC50 was 34 nM.
Work on CNC(=O)CCn1c(=O)[nH]/c(=N\c2ccc(O[C@H](C)C(F)(F)F)cc2)n(Cc2ccc(Cl)cc2)c1=O [Compound I-1957] yielded an IC50 of 22 nM.

Same assay, conditions: C6BU-1 cells stably expressing human P2X3 receptor, Fluo-3 fluorescence, FDSS 3000
With CNC(=O)Cn1c(=O)[nH]/c(=N\c2ccc(Oc3ccc(O)nc3)cc2)n(Cc2ccc(Cl)cc2)c1=O [Compound I-1901] the IC50 was 15 nM.
Work on O=C(Cn1c(=O)[nH]/c(=N\c2ccc(Oc3ccc(O)nc3)cc2)n(Cc2ccc(Cl)cc2)c1=O)NCCO [Compound I-1902] yielded an IC50 of 8 nM.
With COC(=O)Cn1c(=O)[nH]/c(=N\c2ccc(Oc3ccnc(O)c3)cc2)n(Cc2ccc(Cl)cc2)c1=O [Compound I-1903] the IC50 was 4 nM.
For COC(=O)Cn1c(=O)[nH]/c(=N\c2ccc(Oc3ccc(C)nc3)cc2)n(Cc2ccc(Cl)cc2)c1=O [Compound I-1904], the IC50 was 8 nM.
Cc1cc(/N=c2\[nH]c(=O)n(CC(CO)CO)c(=O)n2Cc2ccc(Cl)cc2)ccc1OC(C)C [Compound I-1905] was tested, and the IC50 was 5 nM.
Work on CCOc1ccc(/N=c2\[nH]c(=O)n(CC(CO)CO)c(=O)n2Cc2ccc(Cl)cc2)cc1Cl [Compound I-1906] yielded an IC50 of 6 nM.
Work on CCOc1ccc(/N=c2\[nH]c(=O)n(C[C@H](O)CO)c(=O)n2Cc2ccc(Cl)cc2)cc1Cl [Compound I-1907] yielded an IC50 of 8 nM.
Work on CCc1cc2cc(/N=c3\[nH]c(=O)n(C[C@H](C)C(=O)OC)c(=O)n3Cc3ccc(Cl)cc3)ccc2s1 [Compound I-1947] yielded an IC50 of 677 nM.
